Experiment: Inhibition of the Fe2+ induced radical degradation of hyaluronic acid (viscosity drop)
Conditions: for Index of protection (%): hyaluronic acid 10 g/l, Fe2+ 620 ppm; for effect on the depolymerisation (radical cleavage) of hyaluronic acid in the presence of iron: in words
Protocol: The chelating microspheres prepared according to I2 are used to evaluate their capacity, via the trapping of ferrous iron Fe2+, to inhibit the radical degradation of hyaluronic acid, glycosarinoglycan implied in the moisturisation of the human dermis, which is therefore a particularly important target to protect in cosmetic and dermo-pharmaceutical applications.
A 10 g/l solution of hyaluronic acid of high molecular weight (>1,000,000g/mol or Daltons) is prepared in demineralised water. To this solution is added an amount of Fe2+ of 620 ppm.
Other chelating agents which are conventionally used in cosmetics were used and compared to the chelating microspheres, for their capacity to reduce the radical degradation of hyaluronic acid. Indices of protection, expressed in % of protection, are calculated by carrying out a ratio of the drop in viscosity observed by the presence of iron Fe2+ (620 ppm) in the presence of the chelating agent studied, and the drop in viscosity observed with and without iron Fe2+.

With O/N=C(/C(=N/O)c1ccco1)c1ccco1 [2-furyldioxime] as the compound, how does the “Index of protection (%)” value (concentration used 1.56 g/l) read?
Its value is 23.5%.

And the “Index of protection (%)” value (concentration used 9.37 g/l)?
Its value is 50%.

For O=C(O)CN(CCN(CC(=O)O)CC(=O)O)CC(=O)O [EDTA], which “effect on the depolymerisation (radical cleavage) of hyaluronic acid in the presence of iron” value is on record?
Its value is “accelerated”.

With NO [Hydroxylamine] as the compound, how does the “Index of protection (%)” value (concentration used 6.25 g/l) read?
Its value is 0%.

Which “Index of protection (%)” value (concentration used 125 mg/l) does the source give for Transferrin here?
The value was 8.7%.

What about the “effect on the depolymerisation (radical cleavage) of hyaluronic acid in the presence of iron” value of the same compound?
Its value is “accelerated”.
